This test deals with tonic extensor seizure. The test can be described thus: maximal electroshock test (MES). The conditions noted are these: mouse, PO, at 4 hr. It is filed as in vivo, mouse (albino male CRS-CD1). How it is done: The compounds of formula (I) are particularly useful as anticonvulsant agents in mammals including humans. The anticonvulsant activity of the subject compounds was determined using a standard "maximal electroshock test" (MES). In this test, activity is indicated by a block of the […] extensor seizure caused by application of an electric shock to mice via corneal electrodes, as described by Swinyard et al. in J. Pharmacol. Expt. Ther. 1952, 106, 319, and recorded as % block. A more recent description of current anticonvulsant drug screening is given by Swinyard in Epilepsia 1978, 19, 409. The anticonvulsant activity of the compounds of this invention tested according to the Swinyard 1952 method is shown in the following Table I.
In the test, albino male CRS-CD1 mice weighing between 18-25 g were used in all experiments (obtained from Charles River). They were allowed food and water ad libitum and were used only once. The electroshock apparatus and the corneal electrodes were purchased from Wahlquist Instrument Company, Salt Lake City, Utah.
Maximal electroshock seizures were induced by the delivery of a 60 Hertz (Hz) current of 50 milliamps (mA) intensity to the mouse through corneal electrodes for 0.2 seconds as originally described by Swinyard et al. (1952). This stimulus intensity is approximately 4 to 6 times the current producing 100% tonic extensor convulsions. During the validation of the MES test, the duration of the various seizure components following maximal electroshock were measured as follows: hindleg tonic flexion was measured from the time of the application of the stimulus to the time of onset of hindleg tonic extension (i.e. when the hindlegs deviate by greater than an angle of 90° from the torso), hindleg tonic extensor was measured from the time of extensor thrust to the onset of generalized clonus, and terminal clonus was measured from the beginning to the end of bilateral rhythmic clonic jerking. Mortality was also recorded. The duration of each seizure component agreed well with the values previously reported by Tedeschi et al. in J. Pharmacol. Expt. Ther. 1955, 116, 107. The corneal electrodes were concave so that saline could be applied to the electrodes to reduce mortality. If this procedure is followed, mortality should always be less than 40% in control mice. Thus, at an electroshock stimulus of 60 Hz, 50 mA and 0.2 seconds duration, the order of convulsive components and the percentage of control animals displaying the behaviors should be as follows: tonic flexion (100%), tonic extension (100%) and clonus (100%) with less than 40% mortality.
For testing compounds, the abolition of the tonic extensor component was the endpoint. Animals were dosed orally (PO) with either vehicle or test drug and at a specified time were given a maximal electric shock through corneal electrodes blotted with saline (as described above). A minimum of 10 animals were used per group and the percentage of animals in the group without tonic hindlimb extension recorded. Determination of ED50 values (that dose of drug inhibiting 50% of the tonic extensor seizures) is shown below in Table I.
For orientation: The maximal electroshock test induces tonic seizures with an electrical stimulus.

A word on the ED50: it is the midpoint of the dose-response relation. Lower therefore signals an effect at a small dose.

`CC1(C)O[C@H]2[C@@H]3OS(=O)(=O)O[C@@H]3CO[C@@]2(COS(N)(=O)=O)O1` [Example 1, 2,3-O-(1-Methylethylidene)-4,5-O-sulfonyl-β-D-fructopyranose Sulfamate]: the 50% effect level (ED50) was put at a dose of 6.3 mg/kg.

Source of the values: US5242942A, “Anticonvulsant fructopyranose cyclic sulfites and sulfates” (McNeilab, Inc., priority 1992, dated 1993).
